The source of these data is patent US20190071416A1, “COMPOUNDS FOR TREATMENT OF CANCER AND EPIGENETICS” (Agency For Science, Technology and Research, priority 2015, published 2019).

In general, IC50 refers to the midpoint of a concentration-inhibition curve.

For this test, the target named is T1, SMYD3 (Homo sapiens, UniProt Q9H7B4).
T1 sequence (Q9H7B4 1-428): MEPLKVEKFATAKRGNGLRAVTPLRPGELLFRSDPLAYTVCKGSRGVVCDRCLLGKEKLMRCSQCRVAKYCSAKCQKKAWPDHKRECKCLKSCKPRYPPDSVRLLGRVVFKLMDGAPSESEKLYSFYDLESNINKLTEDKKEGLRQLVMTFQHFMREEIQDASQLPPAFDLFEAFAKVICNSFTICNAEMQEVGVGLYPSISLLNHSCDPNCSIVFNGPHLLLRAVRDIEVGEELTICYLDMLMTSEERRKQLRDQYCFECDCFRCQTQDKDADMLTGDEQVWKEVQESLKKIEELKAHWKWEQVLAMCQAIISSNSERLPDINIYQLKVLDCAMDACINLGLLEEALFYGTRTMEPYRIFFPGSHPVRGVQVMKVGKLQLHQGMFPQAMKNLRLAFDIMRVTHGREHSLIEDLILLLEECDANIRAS
As to the kind of experiment: SMYD3 biochemical assay (MTase-Glo, MAP3K2 peptide substrate). The note with it: Table 3; MTase assay, MAP3K2 peptide substrate; read-out: IC50. Put shortly: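 Methylation of MAP3K2 peptide (10 µM final) with SAM (1.0 µM final) by SMYD3, 30 min at room temperature. SAH formed was enzymatically converted to ATP and detected as luminescence with MTase-Glo reagents; IC50 by non-linear regression.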
Take `CCCOC(=O)N1CCN(C(=O)c2ccc3c(Cl)c(C)c(-c4ccc(F)cc4)nc3c2)CC1` [B022, Propyl 4-(4-chloro-2-(4-fluorophenyl)-3-methylquinoline-7-carbonyl)piperazine-1-carboxylate]: the IC50 stood at 850 nM.
As to `CCCOC(=O)N1CCN(C(=O)c2ccc3c(Cl)c(C)c(-c4ccc(C)cc4)nc3c2)[C@H](C)C1` [B023, Propyl (R)-4-(4-chloro-3-methyl-2-(p-tolyl)quinoline-7-carbonyl)-3-methylpiperazine-1-carboxylate], the IC50 was 690 nM.
In the case of `CCCOC(=O)N1CCN(C(=O)c2ccc3c(Cl)c(C)c(-c4ccc(C)cc4)nc3c2)[C@@H](C)C1` [B024, Propyl (S)-4-(4-chloro-3-methyl-2-(p-tolyl)quinoline-7-carbonyl)-3-methylpiperazine-1-carboxylate] it was 670 nM; in that of `CCCOC(=O)N1CCN(C(=O)c2ccc3c(Cl)c(C)c(-c4ccc(C)cc4)nc3c2)CC1` [B025, Propyl 4-(4-chloro-3-methyl-2-(p-tolyl)quinoline-7-carbonyl)piperazine-1-carboxylate], 670 nM.
The figure for `CCCOC(=O)N1CCN(C(=O)c2ccc3c(Cl)c(C)c(-c4ccc(OC)cc4)nc3c2)[C@@H](C)C1` [B026, Propyl (S)-4-(4-chloro-2-(4-methoxyphenyl)-3-methylquinoline-7-carbonyl)-3-methylpiperazine-1-carboxylate] is 270 nM; for `CCCOC(=O)N1CCN(C(=O)c2ccc3c(Cl)c(C)c(-c4ccccc4C)nc3c2)CC1` [B027, Propyl 4-(4-chloro-3-methyl-2-(o-tolyl)quinoline-7-carbonyl)piperazine-1-carboxylate] it is 1200 nM.
The figure for `CCCOC(=O)N1CCN(C(=O)c2ccc3c(Cl)c(C)c(-c4cccc(C)c4)nc3c2)CC1` [B028, Propyl 4-(4-chloro-3-methyl-2-(m-tolyl)quinoline-7-carbonyl)piperazine-1-carboxylate] is 1100 nM; for `CCCOC(=O)N1CCN(C(=O)c2ccc3c(Cl)c(C)c(-c4cccc(OC)c4)nc3c2)CC1` [B029, Propyl 4-(4-chloro-2-(3-methoxyphenyl)-3-methylquinoline-7-carbonyl)piperazine-1-carboxylate] it is 1400 nM; for `CCCOC(=O)N1CCN(C(=O)c2ccc3c(Cl)c(C)c(-c4cccc(F)c4F)nc3c2)CC1` [B030, Propyl 4-(4-chloro-2-(2,3-difluorophenyl)-3-methylquinoline-7-carbonyl)piperazine-1-carboxylate] it is 5800 nM.
Consider `CCCOC(=O)N1CCN(C(=O)c2ccc3c(Cl)c(C)c(-c4ccc(OC)cc4)nc3c2)CC1` [B031, Propyl 4-(4-chloro-2-(4-methoxyphenyl)-3-methylquinoline-7-carbonyl)piperazine-1-carboxylate], for which the IC50 is 280 nM.
Take `CCCOC(=O)N1CCN(C(=O)c2ccc3c(Cl)c(C)c(-c4cccc(C#N)c4)nc3c2)CC1` [B032, Propyl 4-(4-chloro-2-(3-cyanophenyl)-3-methylquinoline-7-carbonyl)piperazine-1-carboxylate]: the IC50 was 5500 nM.
In the case of `CCCOC(=O)N1CCN(C(=O)c2ccc3c(Cl)cc(-c4cccc(C(N)=O)c4)nc3c2)CC1` [B033, Propyl 4-(2-(3-carbamoylphenyl)-4-chloroquinoline-7-carbonyl)piperazine-1-carboxylate] it was 210 nM; in that of `CCCOC(=O)N1CCN(C(=O)c2ccc3c(Cl)c(C)c(-c4ccc(OC)cc4)nc3c2)C[C@@H]1C` [B034, Propyl (S)-4-(4-chloro-2-(4-methoxyphenyl)-3-methylquinoline-7-carbonyl)-2-methylpiperazine-1-carboxylate], 120 nM.
In the case of `CCCOC(=O)N1CCN(C(=O)c2ccc3c(Cl)c(C)c(-c4cccc(C(N)=O)c4)nc3c2)CC1` [B035, Propyl 4-(2-(3-carbamoylphenyl)-4-chloro-3-methylquinoline-7-carbonyl)piperazine-1-carboxylate] it was 1000 nM; in that of `CCCOC(=O)N1CCN(C(=O)c2ccc3c(Cl)c(C)c(-c4ccc(OC)cc4)nc3c2)C[C@H]1C` [B036, Propyl (R)-4-(4-chloro-2-(4-methoxyphenyl)-3-methylquinoline-7-carbonyl)-2-methylpiperazine-1-carboxylate], 150 nM.
As for `CCCOC(=O)N1CCN(C(=O)c2ccc3c(Cl)c(C)c(-c4ccc(C#N)cc4)nc3c2)CC1` [B037, Propyl 4-(4-chloro-2-(4-cyanophenyl)-3-methylquinoline-7-carbonyl)piperazine-1-carboxylate], the IC50 was 1800 nM.
Regarding `CCCOC(=O)N1CCN(C(=O)c2ccc3c(Cl)c(C)c(-c4cccc(CN)c4)nc3c2)CC1` [B038, Propyl 4-(2-(3-(aminomethyl)phenyl)-4-chloro-3-methylquinoline-7-carbonyl)piperazine-1-carboxylate], the IC50 stood at 99 nM.
In the case of `CCCOC(=O)N1CCN(C(=O)c2ccc3c(Cl)cc(-c4cccc(CN)c4)nc3c2)CC1` [B039, Propyl 4-(2-(3-(aminomethyl)phenyl)-4-chloroquinoline-7-carbonyl)piperazine-1-carboxylate] it was 91 nM; in that of `CCCOC(=O)N1CCN(C(=O)c2ccc3c(Cl)cc(Nc4ccccc4)nc3c2)CC1` [B040, Propyl 4-(4-chloro-2-(phenylamino)quinoline-7-carbonyl)piperazine-1-carboxylate], 3200 nM; in that of `CCCOC(=O)N1CCN(C(=O)c2ccc3c(Cl)cc(Nc4ccc(OC)cc4)nc3c2)CC1` [B041, Propyl 4-(4-chloro-2-((4-methoxyphenyl)amino)quinoline-7-carbonyl)piperazine-1-carboxylate], 1200 nM.
In the case of `CCCOC(=O)N1CCN(C(=O)c2ccc3c(Cl)cc(Nc4cccnc4)nc3c2)CC1` [B042, Propyl 4-(4-chloro-2-(pyridin-3-ylamino)quinoline-7-carbonyl)piperazine-1-carboxylate] it was 3100 nM; in that of `CCCOC(=O)N1CCN(C(=O)c2ccc3c(Cl)c(C)c(-c4cccc([N+](=O)[O-])c4)nc3c2)CC1` [B043, Propyl 4-(4-chloro-3-methyl-2-(3-nitrophenyl)quinoline-7-carbonyl)piperazine-1-carboxylate], 2400 nM; in that of `CCCOC(=O)N1CCN(C(=O)c2ccc3c(Cl)c(C)c(-c4cccc(N)c4)nc3c2)CC1` [B044, Propyl 4-(2-(3-aminophenyl)-4-chloro-3-methylquinoline-7-carbonyl)piperazine-1-carboxylate], 45 nM.
As for `CCCOC(=O)N1CCN(C(=O)c2ccc3c(Cl)cc(-c4ccc(OC)cc4)nc3c2)C[C@H]1C` [B045, Propyl (R)-4-(4-chloro-2-(4-methoxyphenyl)quinoline-7-carbonyl)-2-methylpiperazine-1-carboxylate], the 50% inhibitory concentration (IC50) came out at 440 nM.
In the case of `CCCOC(=O)N1CCN(C(=O)c2ccc3c(Cl)cc(-c4ccc(OC)cc4)nc3c2)CC1` [B046, Propyl 4-(4-chloro-2-(4-methoxyphenyl)quinoline-7-carbonyl)piperazine-1-carboxylate] it was 260 nM.
The figure for `CCCOC(=O)N1CCN(C(=O)c2ccc3c(Cl)cc(-c4ccc(OC)cc4)nc3c2)[C@@H](C)C1` [B047, Propyl (S)-4-(4-chloro-2-(4-methoxyphenyl)quinoline-7-carbonyl)-3-methylpiperazine-1-carboxylate] is 230 nM; for `CCCOC(=O)N1CCN(C(=O)c2ccc3c(Cl)cc(-c4cc(F)cc(F)c4)nc3c2)CC1` [B048, Propyl 4-(4-chloro-2-(3,5-difluorophenyl)quinoline-7-carbonyl)piperazine-1-carboxylate] it is 3000 nM; for `CCCOC(=O)N1CCN(C(=O)c2ccc3c(Cl)cc(-c4cccc(F)c4)nc3c2)CC1` [B049, Propyl 4-(4-chloro-2-(3-fluorophenyl)quinoline-7-carbonyl)piperazine-1-carboxylate] it is 1000 nM.
The figure for `CCCOC(=O)N1CCN(C(=O)c2ccc3c(Cl)cc(-c4ccc(N5CCCC5)cc4)nc3c2)CC1` [B050, Propyl 4-(4-chloro-2-(4-(pyrrolidin-1-yl)phenyl)quinoline-7-carbonyl)piperazine-1-carboxylate] is 790 nM; for `CCCOC(=O)N1CCN(C(=O)c2ccc3c(Cl)ccnc3c2)CC1` [B051, Propyl 4-(4-chloroquinoline-7-carbonyl)piperazine-1-carboxylate] it is 3200 nM.
On to `CCCOC(=O)N1CCN(C(=O)c2ccc3c(Cl)cc(-c4ccc(C)cc4)nc3c2)C[C@H]1C` [B052, Propyl (R)-4-(4-chloro-2-(p-tolyl)quinoline-7-carbonyl)-2-methylpiperazine-1-carboxylate], for which the IC50 came out at 770 nM.
For the compound `CCCOC(=O)N1CCN(C(=O)c2ccc3c(Cl)cc(-c4cccc(C(N)=O)c4)nc3c2)C[C@H]1C` [B053, Propyl (R)-4-(2-(3-carbamoylphenyl)-4-chloroquinoline-7-carbonyl)-2-methylpiperazine-1-carboxylate], the IC50 is 180 nM.
Take `CCCOC(=O)N1CCN(C(=O)c2ccc3c(Cl)cc(-c4cccc(CN)c4)nc3c2)C[C@H]1C` [B054, Propyl (R)-4-(2-(3-(aminomethyl)phenyl)-4-chloroquinoline-7-carbonyl)-2-methylpiperazine-1-carboxylate]: the IC50 came out at 100 nM.
